In patent US20120270778A1, “Compositions and Methods for Non-Invasive Treatment of Chronic Complications of Diabetes” (Aegis Therapeutics LLC, priority 2009, published 2012):

Key:
[1] = tested on: diabetes-induced hyperfiltration; conditions: in vivo; cited from earlier work
type 1 diabetes = conditions: human; cited from earlier work
normal and diabetic mice = conditions: repressed by insulin; cited from earlier work
islet cell = conditions: cited from earlier work
[2] = Serum insulin and C-peptide levels after nasal administration of combined formulations to rats; type: in vivo
Procedure: Test System—Sprague Dawley rats, females; 325 grams are used throughout this study. Rats are anesthetized by isoflurane/O2 mixture. To a first and second group of three rats each is administered vehicle containing C-peptide concentration of 1 and 10 mg/mL as described in Example 1 to which is added 0.1% benzallconium chloride as a preservative. To a third and fourth group of 3 rats each is administered vehicle containing C-peptide concentration of 1 and 10 mg/mL as described above to which is added 45 mg/mL methyl-beta-cyclodextrin (Sigma-Aldrich). […]
Analysis Procedure—The serum was frozen at approximately −70° C. in pre-labeled, plastic tubes, and tightly capped, and stored at approximately −70° C. until ready for testing. […]
Solutions prepared as described in Example 3 were administered nasally to rats and tested as described in Example 2 except with the addition that serum human insulin determinations were made using the Human Insulin ELISA Kit™ from Diagnostic Systems Laboratories, Inc, Webster, Tex. The relative molar ratios of insulin to C-peptide in serum for each formulation was calculated by taking the ratio of the insulin concentration to the C-peptide concentration at a fixed time point. In Table 2 below, ratios of the concentrations of insulin and C-peptide for concentrations measured at two time points, namely 20 min. and 40 min. post nasal instillation. […]

insulin = insulin (Homo sapiens, UniProt P01308); conditions: cited from earlier work
[3] = tested on: rat model of type 1 diabetes; conditions: cited from earlier work
[4] = tested on: patients with early-stage type 1 diabetic neuropathy; conditions: treatment for 6 months; cited from earlier work
[5] = in vivo, inhaled or intranasal; cited from earlier work

insulin, sequence (P01308 25-54 limits assumed, species assumed): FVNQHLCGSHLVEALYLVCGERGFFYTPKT
insulin, sequence (P01308 90-110 limits assumed, species assumed): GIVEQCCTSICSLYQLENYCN

| Substance | effect on diabetes-induced hyperfiltration, renal hypertrophy and albuminuria [1] | effect on diabetes-induced renal and nerve dysfunction (type 1 diabetes) | antithrombotic effects (normal and diabetic mice) | effect on islet cell apoptosis (islet cell) | rate of absorption relative to insulin [2] | effect on insulin aggregation (insulin) | effect on neuropathy [3] | effect on sensory nerve function [4] | systemic bioavailability by intranasal route [5] |
| --- | --- | --- | --- | --- | --- | --- | --- | --- | --- |
| EVARQ | reduce diabetes-induced hyperfiltration, as well as renal hypertrophy and albuminuria |  |  |  |  |  |  |  |  |
| Proinsulin C-Peptide (55-89), human | reduce diabetes-induced hyperfiltration, as well as renal hypertrophy and albuminuria | amelioration of diabetes-induced renal and nerve dysfunction | exerts antithrombotic effects | decreases islet cell apoptosis | slightly, but not significantly, more rapidly than insulin | elicit disaggregation of insulin | improves neuropathy | improved sensory nerve function |  |
| salmon calcitonin |  |  |  |  |  |  |  |  | 3% |
